Assay results: patent US11135228B2, “Cysteinyl-proresolving mediators that promote resolution of infection and organ protection” (THE BRIGHAM AND WOMEN'S HOSPITAL, priority 2014, dated 2021)
“Also recorded” adds a separate entry of the source.

Assays:
Human neutrophils = assay: Human neutrophil phagocytosis of fluorescently labeled E. coli; format: cell-based; settings: 10 pM-100 nM, 15 min, then E. coli 45 min
Procedure: Leukocyte phagocytosis: Macrophages were prepared from peripheral blood mononuclear cells (PBMC) purchased from Children's Hospital Blood Bank, Boston, and phagocytosis was assessed as in (11). Briefly, macrophages (5×10^4 cells,/well) were incubated with SCI (10 pM-100 nM), SCII (10 pM-100 nM), MaR1 (10 pM-100 nM), or vehicle (0.1% EtOH in DPBS) for 15 min at 37° C., then fluorescent labeled apoptotic cells were added and cells incubated 45 min at 37° C. Extracellular fluorescence was quenched using Trypan blue (1:15 dilution) and phagocytosis assessed using an M3 SpectraMax plate reader. In select experiments, macrophages (5×10^4 cells/well) or neutrophils (1×10^5 cells/well) were obtained from human healthy volunteers' peripheral blood as in (11) in accordance with Partners Human Research Committee Protocol (#1999P001297), and incubated with H2DCFDA (5 μM, 30 min, 37° C.), then with SCI (10 pM-100 nM), SCI (10 pM-100 nM) or vehicle (0.1% EtOH in DPBS, 15 min, 37° C.) and E. coli (1:50 leukocytes to E. coli, 45 min, 37° C.) Intracellular reactive oxygen species were determined by measuring fluorescence using an M3 SpectraMax plate reader. […]

Djndk, Djmpka, DjAdb-Ba = assay: Gene expression in regenerating planaria blastemas (real-time PCR); format: in vivo, Dugesia japonica; settings: 100 nM, 2 days post injury
Procedure: Whole mount in situ hybridization, real-time PCR and dsRNA synthesis: Regenerating blastemas were obtained from planaria after surgical injury and placed in Trizol (Ambion). RNA was isolated following manufacturer's instructions and cDNA was synthesized essentially as in (16) using random hexamers, Oligo(dt)20 and Superscript III (Invitrogen), Relative quantitative analysis for each gene product was carried out using an ABI 7900ht fast real-time PCR machine (Applied Biosystems). DjGapdh—Forward: […] (SEQ ID NO. 1); Reverse: […] (SEQ ID NO. 2). Djsfpr-A—Forward: […] (SEQ ID NO. 3); Reverse: […] (SEQ ID NO. 4). Djndk—Forward: […] (SEQ ID NO. 5); Reverse: […] (SEQ ID NO. 6). DjmpkA—Forward: […] (SEQ ID NO. 7); Reverse: […] (SEQ ID NO. 8). DfAdb-Ba—Forward: […] (SEQ ID NO. 9); Reverse: […] (SEQ ID NO. 10). DjGst—Forward: […] (SEQ ID NO. 11); Reverse: […] (SEQ ID NO. 12). The constitutively transcribed housekeeping gene, GAPDH, was employed to normalized target gene expression levels as in (16).
Planaria regeneration: Planaria (Dugesia japonica; Dj) were kept in water (Poland Spring) at 18° C. […] Tissue regeneration was assessed as in (12). […] The extent of tissue regeneration during a 6-day period for D. japonica was determined using captured images of the regenerating blastemas at regular intervals (24 h). These images were analyzed using ImageJ software. […]

Human macrophages = assay: Human macrophage phagocytosis of fluorescently labeled E. coli; format: cell-based; settings: 10 pM-100 nM, 15 min, then E. coli 45 min
Procedure: Leukocyte phagocytosis: Macrophages were prepared from peripheral blood mononuclear cells (PBMC) purchased from Children's Hospital Blood Bank, Boston, and phagocytosis was assessed as in (11). Briefly, macrophages (5×10^4 cells,/well) were incubated with SCI (10 pM-100 nM), SCII (10 pM-100 nM), MaR1 (10 pM-100 nM), or vehicle (0.1% EtOH in DPBS) for 15 min at 37° C., then fluorescent labeled apoptotic cells were added and cells incubated 45 min at 37° C. Extracellular fluorescence was quenched using Trypan blue (1:15 dilution) and phagocytosis assessed using an M3 SpectraMax plate reader. In select experiments, macrophages (5×10^4 cells/well) or neutrophils (1×10^5 cells/well) were obtained from human healthy volunteers' peripheral blood as in (11) in accordance with Partners Human Research Committee Protocol (#1999P001297), and incubated with H2DCFDA (5 μM, 30 min, 37° C.), then with SCI (10 pM-100 nM), SCI (10 pM-100 nM) or vehicle (0.1% EtOH in DPBS, 15 min, 37° C.) and E. coli (1:50 leukocytes to E. coli, 45 min, 37° C.) Intracellular reactive oxygen species were determined by measuring fluorescence using an M3 SpectraMax plate reader. To assess bacterial phagocytosis, macrophages (5×10^4 cells/well) or neutrophils (1×10^5 cells/well) were incubated with SCI (10 pM-100 nM), SCII (10 pM-100 nM) or vehicle (0.1% EtOH in DPBS, 15 min, 37° C.), then incubated with BacLight Green (Molecular Probes) labeled E. coli (1:50 leukocytes to E. coli, 45 min, 37° C.), Extracellular fluorescence was quenched using Trypan blue (1:15 dilution), and phagocytosis assessed using an M3 SpectraMax plate reader.
Macrophage phagocytosis was assessed using fluorescently labeled E. coli (serotype O6:K2;H1) with BacLight Green Bacterial Stain (Life Technologies, Eugene, Oreg., USA). E. coli [2.5×10^6 colony-forming units (CFL)/well] were then added to macrophages previously plated in 96-well plates (40 min at 37° C.) and incubated with 0.1-10 nM concentration of test compounds [15 min at 37° C. (pH 7.45)]. Fluorescence was measured on a SpectraMax M3 plate reader, and results were analyzed using SoftMax Pro.

[1] = system: Planaria (Dugesia japonica); assay: Planaria tissue regeneration after surgical injury (head resection), tissue regeneration index; format: in vivo; settings: for T50: either SCI or SCII alone, concentration dependent, vehicle ~5 days; for tissue regeneration / head regrowth (in words): surgically injured planaria vs vehicle
Procedure: Planaria regeneration: Planaria (Dugesia japonica; Dj) were kept in water (Poland Spring) at 18° C. All animals were starved for at least 7 days prior to experiments. Tissue regeneration was assessed as in (12). Briefly, planaria were subject to head resection post-occularly (surgical Injury). The posterior portions of the planaria were then placed in spring water containing 0.01% EtOH, SPE-C isolate fraction 2 from resolving exudates or milk at the indicated dilutions, U0126 (Extracellular signal-regulated kinases (ERK) inhibitor; Cell Signaling Technology; 25 μM (16)), U0126 plus resolving exudates SPE-C isolates fraction 2, SCI (100 nM), SCII (100 nM), lipoxygenase inhibitor (baicalein, 10 μM) or lipoxygenase inhibitor plus SCI and SCII (100 nM). The extent of tissue regeneration during a 6-day period for D. japonica was determined using captured images of the regenerating blastemas at regular intervals (24 h). These images were analyzed using ImageJ software. A tissue regeneration index (TRI) was employed that took into consideration the size of the regenerated tissue total area (A) and the post-ocular width W of the animal, where TRI=A/W. In determined experiments, planaria were injured and incubated in water, containing 10^8CFU E. coli (serotype O6:K2:H1) or with E. coli plus SCI and SCII (100 nM), and tissue regeneration indices assessed as described above.
Planaria regeneration: Planaria (Dugesia japonica) were kept in water (Poland. Spring; Nestlé Waters North America, Stamford, Conn., USA) at 18° C. All animals were starved for at least 7 d before the experiments. Tissue regeneration was assessed as described previously (10). In brief, planaria were subjected to head resection postoccularly (surgical injury). The posterior portions of the planaria were then placed in spring water containing 0.01% EtOH, 16-glutathionyl, 17-hydroxyl-4Z,7Z,10,12,14,19Z-docosahexaenoic acid plus 16-cysteinylglycinyl, 7-hydroxyl-4Z,7Z,10,12,14,19Z-docosahexaenoic acid (50 nM; each) or 8-gutathionyl, 7,17-dihydroxyl-4Z9,11,13Z,15E,19Z-docosahexaenoic acid plus 8-cysteinylglycinyl, 7,17-dihydroxyl-4Z,9,11,13Z,15E,19Z-docosahexaenoic acid (50 nM, each). The extent of tissue regeneration during a 6-d period was determined using captured images of the regenerating blastemas at regular intervals (24 h). These images were analyzed using ImageJ software (NIH, Bethesda, Md., USA). A tissue regeneration index (TRI) was used that took into consideration the size of the regenerated tissue total area (A) and the postocular width (W), where TRI=A/W (10).

Row | Compound | neutrophil phagocytosis of E. coli (Human neutrophils) | genes involved in head regeneration (Djndk, Djmpka, DjAdb-Ba) | macrophage phagocytosis of E. coli (Human macrophages) | T50 [1] [days] | tissue regeneration / head regrowth (in words) [1]
1 | CCC=CCC=CCC(O)C(C=CC=CC=CCC=CCCC(=O)O)SCC(N)C(=O)NCC(=O)O (stereo not shown) [SCII, 13-cysteinylglycinyl, 14-hydroxy-docosahexaenoic acid] | enhanced; also recorded: Stimulates human | upregulated | enhanced; also recorded: Stimulates human | ~3.5 | accelerated head regrowth; also recorded: Promotes tissue
2 | 13-glutathionyl, 14-hydroxy-docosahexaenoic acid [SCI] | enhanced; also recorded: Stimulates human | upregulated | enhanced; also recorded: Stimulates human | ~3.5 | accelerated head regrowth; also recorded: Promotes tissue
